From ChEMBL document CHEMBL4007388, “Synthesis and antiproliferative activity of monocationic arylthiophene derivatives” (Eur J Med Chem, 2017)

What was measured:
SK-MEL-28 = test: Growth inhibition of human SK-MEL-28 cells incubated for 48 hrs by sulforhodamine B assay; assay type: functional; conditions: SK-MEL-28, 48 h
KM12 = test: Growth inhibition of human KM12 cells incubated for 48 hrs by sulforhodamine B assay; assay type: functional; conditions: KM12, 48 h
DU-145 = test: Growth inhibition of human DU145 cells incubated for 48 hrs by sulforhodamine B assay; assay type: functional; conditions: DU-145, 48 h
NCI-H226 = test: Growth inhibition of human NCI-H226 cells incubated for 48 hrs by sulforhodamine B assay; assay type: functional; conditions: NCI-H226, 48 h
Malme-3M = test: Growth inhibition of human MALME-3M cells incubated for 48 hrs by sulforhodamine B assay; assay type: functional
Hs-578T = test: Growth inhibition of human Hs 578T cells incubated for 48 hrs by sulforhodamine B assay; assay type: functional
PC-3 = test: Growth inhibition of human PC3 cells incubated for 48 hrs by sulforhodamine B assay; assay type: functional; conditions: PC-3, 48 h
ACHN = test: Growth inhibition of human ACHN cells incubated for 48 hrs by sulforhodamine B assay; assay type: functional
UACC-257 = test: Growth inhibition of human UACC257 cells incubated for 48 hrs by sulforhodamine B assay; assay type: functional; conditions: UACC-257, 48 h
BT-549 = test: Growth inhibition of human BT549 cells incubated for 48 hrs by sulforhodamine B assay; assay type: functional; conditions: BT-549, 48 h
MDA-MB-435 = test: Growth inhibition of human MDA-MB-435 cells incubated for 48 hrs by sulforhodamine B assay; assay type: functional; conditions: MDA-MB-435, 48 h
WI-38 = test: Cytotoxicity against human WI38 cells assessed as reduction in cell viability after 24 hrs by MTT assay; assay type: cell-based; conditions: WI-38, 24 h
SK-MEL-5 = test: Growth inhibition of human SK-MEL-5 cells incubated for 48 hrs by sulforhodamine B assay; assay type: functional; conditions: SK-MEL-5, 48 h
HT-29 = test: Growth inhibition of human HT-29 cells incubated for 48 hrs by sulforhodamine B assay; assay type: functional; conditions: HT-29, 48 h
OVCAR-4 = test: Growth inhibition of human OVCAR4 cells incubated for 48 hrs by sulforhodamine B assay; assay type: functional; conditions: OVCAR-4, 48 h
786-0 = test: Growth inhibition of human 786-O cells incubated for 48 hrs by sulforhodamine B assay; assay type: functional; conditions: 786-0, 48 h
COLO 205 = test: Growth inhibition of human COLO205 cells incubated for 48 hrs by sulforhodamine B assay; assay type: functional; conditions: COLO 205, 48 h
SF-268 = test: Growth inhibition of human SF268 cells incubated for 48 hrs by sulforhodamine B assay; assay type: functional; conditions: SF-268, 48 h
MCF7 = test: Growth inhibition of human MCF7 cells incubated for 48 hrs by sulforhodamine B assay; assay type: functional; conditions: MCF7, 48 h
SW-620 = test: Growth inhibition of human SW620 cells incubated for 48 hrs by sulforhodamine B assay; assay type: functional; conditions: SW-620, 48 h
LOX IMVI = test: Growth inhibition of human LOXIMVI cells incubated for 48 hrs by sulforhodamine B assay; assay type: functional
WISH = test: Cytotoxicity against human WISH cells assessed as reduction in cell viability after 24 hrs by MTT assay; assay type: cell-based
UO-31 = test: Growth inhibition of human UO31 cells incubated for 48 hrs by sulforhodamine B assay; assay type: functional; conditions: UO-31, 48 h
SF-295 = test: Growth inhibition of human SF295 cells incubated for 48 hrs by sulforhodamine B assay; assay type: functional; conditions: SF-295, 48 h
MDA-MB-468 = test: Growth inhibition of human MDA-MB-468 cells incubated for 48 hrs by sulforhodamine B assay; assay type: functional; conditions: MDA-MB-468, 48 h
OVCAR-3 = test: Growth inhibition of human OVCAR3 cells incubated for 48 hrs by sulforhodamine B assay; assay type: functional; conditions: OVCAR-3, 48 h
HCT-116 = test: Growth inhibition of human HCT116 cells incubated for 48 hrs by sulforhodamine B assay; assay type: functional; conditions: HCT-116, 48 h
NCI-H522 = test: Growth inhibition of human NCI-H522 cells incubated for 48 hrs by sulforhodamine B assay; assay type: functional; conditions: NCI-H522, 48 h
HCT-15 = test: Growth inhibition of human HCT15 cells incubated for 48 hrs by sulforhodamine B assay; assay type: functional; conditions: HCT-15, 48 h
SNB-19 = test: Growth inhibition of human SNB19 cells incubated for 48 hrs by sulforhodamine B assay; assay type: functional; conditions: SNB-19, 48 h
RPMI-8226 = test: Growth inhibition of human RPMI8226 cells incubated for 48 hrs by sulforhodamine B assay; assay type: functional; conditions: RPMI-8226, 48 h
SN12C = test: Growth inhibition of human SN12C cells incubated for 48 hrs by sulforhodamine B assay; assay type: functional
Homo sapiens = species on record: Homo sapiens; test: Inhibition of PTK in human MCF7 cells at 1 uM preincubated for 2 hrs followed by poly-Glu-Tyr substrate addition by ELISA relative to control; assay type: cell-based
HCC 2998 = test: Growth inhibition of human HCC2998 cells incubated for 48 hrs by sulforhodamine B assay; assay type: functional; conditions: HCC 2998, 48 h
SF-539 = test: Growth inhibition of human SF539 cells incubated for 48 hrs by sulforhodamine B assay; assay type: functional; conditions: SF-539, 48 h
Escherichia coli = test: Induction of Escherichia coli genomic DNA cleavage after 1 hr by agarose gel electrophoresis method
HOP-92 = test: Growth inhibition of human HOP92 cells incubated for 48 hrs by sulforhodamine B assay; assay type: functional; conditions: HOP-92, 48 h
NCI/ADR-RES = test: Growth inhibition of human NCI/ADR-RES cells incubated for 48 hrs by sulforhodamine B assay; assay type: functional
[1] = Antioxidant activity assessed as superoxide dismutase-like activity by measuring inhibition of superoxide radical anion production at 2 uM by NBT reduction assay relative to control; assay type: functional
NCI-H23 = test: Growth inhibition of human NCI-H23 cells incubated for 48 hrs by sulforhodamine B assay; assay type: functional; conditions: NCI-H23, 48 h
U-251 = test: Growth inhibition of human U251 cells incubated for 48 hrs by sulforhodamine B assay; assay type: functional; conditions: U-251, 48 h
OVCAR-5 = test: Growth inhibition of human OVCAR5 cells incubated for 48 hrs by sulforhodamine B assay; assay type: functional; conditions: OVCAR-5, 48 h
CCRF-CEM = test: Growth inhibition of human CCRF-CEM cells incubated for 48 hrs by sulforhodamine B assay; assay type: functional
SNB-75 = test: Growth inhibition of human SNB75 cells incubated for 48 hrs by sulforhodamine B assay; assay type: functional; conditions: SNB-75, 48 h
RXF 393 = test: Growth inhibition of human RXF393 cells incubated for 48 hrs by sulforhodamine B assay; assay type: functional; conditions: RXF 393, 48 h
A498 = test: Growth inhibition of human A498 cells incubated for 48 hrs by sulforhodamine B assay; assay type: functional; conditions: A498, 48 h
TK-10 = test: Growth inhibition of human TK10 cells incubated for 48 hrs by sulforhodamine B assay; assay type: functional; conditions: TK-10, 48 h
NCI-H460 = test: Growth inhibition of human NCI-H460 cells incubated for 48 hrs by sulforhodamine B assay; assay type: functional; conditions: NCI-H460, 48 h
UACC-62 = test: Growth inhibition of human UACC62 cells incubated for 48 hrs by sulforhodamine B assay; assay type: functional; conditions: UACC-62, 48 h
CAKI-1 = test: Growth inhibition of human Caki1 cells incubated for 48 hrs by sulforhodamine B assay; assay type: functional; conditions: CAKI-1, 48 h
M14 = test: Growth inhibition of human M14 cells incubated for 48 hrs by sulforhodamine B assay; assay type: functional; conditions: M14, 48 h
SK-OV-3 = test: Growth inhibition of human SKOV3 cells incubated for 48 hrs by sulforhodamine B assay; assay type: functional; conditions: SK-OV-3, 48 h
MDA-MB-231 = test: Growth inhibition of human MDA-MB-231 cells incubated for 48 hrs by sulforhodamine B assay; assay type: functional; conditions: MDA-MB-231, 48 h
OVCAR-8 = test: Growth inhibition of human OVCAR8 cells incubated for 48 hrs by sulforhodamine B assay; assay type: functional; conditions: OVCAR-8, 48 h
SK-MEL-2 = test: Growth inhibition of human SK-MEL-2 cells incubated for 48 hrs by sulforhodamine B assay; assay type: functional; conditions: SK-MEL-2, 48 h
A549 = test: Growth inhibition of human A549/ATCC cells incubated for 48 hrs by sulforhodamine B assay; assay type: functional; conditions: A549, 48 h
NCI-H322M = test: Growth inhibition of human NCI-H322M cells incubated for 48 hrs by sulforhodamine B assay; assay type: functional
T47D = test: Growth inhibition of human T47D cells incubated for 48 hrs by sulforhodamine B assay; assay type: functional
[2] = Growth inhibition of human NCI60 cells at 10 uM after 48 hrs by SRB assay relative to control; values are per cent of control; conditions: NCI60, 48 h

Structure (SMILES): COc1ccc(-c2ccc(-c3ccc(C(=N)N)cc3)s2)cc1
- GI50 (SK-MEL-28): 1550 nM
- GI50 (KM12): 339 nM
- GI50 (DU-145): 201 nM
- GI50 (NCI-H226): 2140 nM
- GI50 (Malme-3M): 2170 nM
- GI50 (Hs-578T): 2140 nM
- GI50 (PC-3): 773 nM
- GI50 (ACHN): 359 nM
- GI50 (UACC-257): 2070 nM
- GI50 (BT-549): 1650 nM
- GI50 (MDA-MB-435): 924 nM
- IC50 (WI-38): 192000 nM
- GI50 (SK-MEL-5): 1390 nM
- GI50 (HT-29): 196 nM
- GI50 (OVCAR-4): 1580 nM
- GI50 (786-0): 184 nM
- GI50 (COLO 205): 224 nM
- GI50 (SF-268): 1740 nM
- GI50 (MCF7): 175 nM
- GI50 (SW-620): 211 nM
- GI50 (LOX IMVI): 198 nM
- IC50 (WISH): 180000 nM
- GI50 (UO-31): 1670 nM
- GI50 (SF-295): 1270 nM
- GI50 (MDA-MB-468): 192 nM
- GI50 (OVCAR-3): 1730 nM
- GI50 (HCT-116): 186 nM
- GI50 (NCI-H522): 251 nM
- GI50 (HCT-15): 183 nM
- GI50 (SNB-19): 811 nM
- GI50 (RPMI-8226): 282 nM
- GI50 (SN12C): 189 nM
- inhibition (Homo sapiens): 19 to 36%
- GI50 (HCC 2998): 1330 nM
- GI50 (SF-539): 160 nM
- Activity (Escherichia coli): Dose-dependent effect
- GI50 (HOP-92): 750 nM
- GI50 (NCI/ADR-RES): 1490 nM
- inhibition [1]: 59.2%
- GI50 (NCI-H23): 665 nM
- GI50 (U-251): 232 nM
- GI50 (OVCAR-5): 180 nM
- GI50 (CCRF-CEM): 231 nM
- GI50 (SNB-75): 1710 nM
- GI50 (RXF 393): 1000 nM
- GI50 (A498): 1740 nM
- GI50 (TK-10): 1970 nM
- GI50 (NCI-H460): 204 nM
- GI50 (UACC-62): 1410 nM
- GI50 (CAKI-1): 1500 nM
- GI50 (M14): 1410 nM
- GI50 (SK-OV-3): 1960 nM
- GI50 (MDA-MB-231): 267 nM
- GI50 (OVCAR-8): 321 nM
- GI50 (SK-MEL-2): 2300 nM
- GI50 (A549): 226 nM
- GI50 (NCI-H322M): 1240 nM
- GI50 (T47D): 300 nM
- growth percent at 10 µM [2]: -70.7%
